We go through 23 compounds from US20220274979A1 (Bayer Pharma Aktiengesellschaft, priority 2018, published 2022).

A value given as a limit tells only on which side of the number the result lay.

Experiment [1] deals with T1, hK-RasG12C - hSOS1 interaction (Homo sapiens, UniProt Q07889).
T1 construct: hSOS1 (amino acid 564-1049); made in house; host or cells: E. coli BL21 (DE3)
T1 sequence (Q07889 with tags, fused parts or gaps): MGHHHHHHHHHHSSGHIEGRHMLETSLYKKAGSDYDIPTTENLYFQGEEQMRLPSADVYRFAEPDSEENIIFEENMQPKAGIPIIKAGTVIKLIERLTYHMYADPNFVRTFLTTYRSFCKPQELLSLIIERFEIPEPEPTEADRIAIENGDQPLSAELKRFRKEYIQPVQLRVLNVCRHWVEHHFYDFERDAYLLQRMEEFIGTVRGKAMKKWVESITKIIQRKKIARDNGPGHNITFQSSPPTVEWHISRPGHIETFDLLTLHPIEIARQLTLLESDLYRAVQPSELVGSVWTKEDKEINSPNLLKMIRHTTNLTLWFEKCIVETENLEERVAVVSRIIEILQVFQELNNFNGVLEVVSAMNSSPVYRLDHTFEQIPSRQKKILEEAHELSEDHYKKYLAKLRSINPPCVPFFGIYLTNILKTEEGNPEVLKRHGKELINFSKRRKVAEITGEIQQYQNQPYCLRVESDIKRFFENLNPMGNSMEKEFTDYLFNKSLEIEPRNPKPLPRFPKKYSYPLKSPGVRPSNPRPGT
Kind of experiment: Biochemical Assay 1: hK-RasG12C interaction assay with hSOS1 (HTRF). Type of experiment: binding. The following applies: for IC50: values expressed as IC50. Summed up:
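HTRF signal between GST-hK-RasG12C (10 nM working solution, anti-GST-Eu) and His-hSOS1 (20 nM working solution, anti-6His-XL665) was read in HEPES pH 7.4 buffer with 10 mM EDTA, 1 mM DTT and 100 mM KF at 20 °C.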

Experiment [2] addresses T2, Epidermal Growth Factor Receptor (EGFR) (Homo sapiens, UniProt P00533).
T2 construct: purchased Sigma-Aldrich E3641
Kind of experiment: EGFR kinase assay (TR-FRET). Particulars: 10 μM ATP; read-out: EGFR kinase inhibition IC50. Format: biochemical. Summed up: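 EGFR purified from A431 cells pre-incubated 15 min with compound, then reacted 20 min at 22 °C with 10 μM ATP and 1 μM biotinylated peptide (final) in HEPES pH 7.0 with Mg2+/Mn2+. Phosphopeptide detected by TR-FRET (Tb anti-phosphotyrosine/streptavidin-XL665), 665/620 nm emission ratio.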

T2 sequence (P00533 25-1210): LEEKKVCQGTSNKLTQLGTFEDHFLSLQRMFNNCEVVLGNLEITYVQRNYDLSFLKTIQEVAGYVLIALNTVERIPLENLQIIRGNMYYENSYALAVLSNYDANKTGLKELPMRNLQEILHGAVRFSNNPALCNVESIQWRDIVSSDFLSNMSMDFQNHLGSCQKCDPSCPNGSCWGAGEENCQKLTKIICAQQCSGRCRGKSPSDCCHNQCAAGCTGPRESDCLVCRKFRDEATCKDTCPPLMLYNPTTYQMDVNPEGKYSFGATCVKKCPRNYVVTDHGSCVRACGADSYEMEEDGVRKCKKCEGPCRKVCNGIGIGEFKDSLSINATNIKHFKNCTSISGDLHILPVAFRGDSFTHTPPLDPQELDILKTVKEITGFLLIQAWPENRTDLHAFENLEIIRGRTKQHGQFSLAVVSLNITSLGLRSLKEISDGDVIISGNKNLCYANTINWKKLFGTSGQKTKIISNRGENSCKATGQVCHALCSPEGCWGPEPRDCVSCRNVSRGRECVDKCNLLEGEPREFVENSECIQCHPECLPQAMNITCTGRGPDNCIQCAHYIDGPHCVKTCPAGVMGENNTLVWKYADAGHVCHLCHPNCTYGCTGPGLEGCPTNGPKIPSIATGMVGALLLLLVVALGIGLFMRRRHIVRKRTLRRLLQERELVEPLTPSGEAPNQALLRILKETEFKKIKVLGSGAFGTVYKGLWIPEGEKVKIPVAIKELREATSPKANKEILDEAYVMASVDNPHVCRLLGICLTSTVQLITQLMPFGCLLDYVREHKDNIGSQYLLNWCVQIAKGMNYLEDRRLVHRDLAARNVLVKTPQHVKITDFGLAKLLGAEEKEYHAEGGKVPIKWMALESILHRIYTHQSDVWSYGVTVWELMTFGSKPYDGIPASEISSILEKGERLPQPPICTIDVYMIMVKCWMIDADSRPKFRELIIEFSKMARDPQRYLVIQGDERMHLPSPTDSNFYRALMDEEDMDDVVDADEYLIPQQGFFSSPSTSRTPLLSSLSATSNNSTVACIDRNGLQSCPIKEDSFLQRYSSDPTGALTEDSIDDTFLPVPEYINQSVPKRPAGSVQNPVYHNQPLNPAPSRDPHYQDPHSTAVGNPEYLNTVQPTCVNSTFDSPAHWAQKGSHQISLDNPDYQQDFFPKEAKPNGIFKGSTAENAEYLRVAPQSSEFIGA

For the compound `CSc1cc2c(NC(C)c3ccc(-c4ccccc4CN(C)C)s3)nc(C)nc2cn1` (stereo not shown) [Example 59, N-[1-(5-{2-[(dimethylamino)methyl]phenyl}thiophen-2-yl)ethyl]-2-methyl-6-(methylsulfanyl)pyrido[3,4-d]pyrimidin-4-amine], the concentration for half-maximal inhibition (IC50) in experiment [1] is 0.0662 µM; in experiment [2], > 20 µM.

For the compound `CC(=O)NCCOc1cc2c(N[C@H](C)c3cccc(Br)c3)nc(C)nc2cn1` [Example 62, N-{2-[(4-{[(1R)-1-(3-bromophenyl)ethyl]amino}-2-methylpyrido[3,4-d]pyrimidin-6-yl)oxy]ethyl}acetamide], the figures for the concentration for half-maximal inhibition (IC50) in experiment [1] and in experiment [2] were 0.291 µM and > 20 µM, respectively.

Consider `CCOc1cc2c(NC(C)c3ccc(-c4ccccc4CN(C)C)s3)nc(C)nc2cn1` (stereo not shown) [Example 63, N-[1-(5-{2-[(dimethylamino)methyl]phenyl}thiophen-2-yl)ethyl]-6-ethoxy-2-methylpyrido[3,4-d]pyrimidin-4-amine], for which the half-inhibitory concentration (IC50) was 0.0436 µM in experiment [1] and > 20 µM in experiment [2].

Consider `COc1cc2c(NC(C)c3ccc(-c4ccccc4CN(C)C)s3)nc(C)nc2cn1` (stereo not shown) [Example 64, N-[1-(5-{2-[(dimethylamino)methyl]phenyl}thiophen-2-yl)ethyl]-6-methoxy-2-methylpyrido[3,4-d]pyrimidin-4-amine], for which the half-maximal inhibitory concentration (IC50) is 0.0595 µM in experiment [1] and > 20 µM in experiment [2].

For the compound `Cc1nc(NC(C)c2ccc(-c3ccccc3CN(C)C)s2)c2cc(OC3CCS(=O)(=O)CC3)ncc2n1` (stereo not shown) [Example 67, N-[1-(5-{2-[(dimethylamino)methyl]phenyl}thiophen-2-yl)ethyl]-6-[(1,1-dioxidotetrahydro-2H-thiopyran-4-yl)oxy]-2-methylpyrido[3,4-d]pyrimidin-4-amine], the results for the IC50 in experiment [1] and in experiment [2] were 0.042 µM and > 20 µM, respectively.

Regarding `Cc1nc(NC(C)c2ccc(-c3ccccc3CO)s2)c2cc(F)ncc2n1` (stereo not shown) [Example 68, [2-(5-{1-[(6-fluoro-2-methylpyrido[3,4-d]pyrimidin-4-yl)amino]ethyl}thiophen-2-yl)phenyl]methanol], the inhibition at 20 µM in experiment [1] (read-out: Assay 1 (hKRAS, hSOS Interaction) activity (expressed as IC50, or as % inhibition at 20 μM)) came out at 43.8%. Moreover, the IC50 in experiment [2] is > 20 µM.

In the case of `Cc1nc(N[C@H](C)c2cccc(Br)c2)c2cc(OCCCN(C)C)ncc2n1` [Example 70, N-[(1R)-1-(3-bromophenyl)ethyl]-6-[3-(dimethylamino)propoxy]-2-methylpyrido[3,4-d]pyrimidin-4-amine], the IC50 in experiment [1] was 0.409 µM; in experiment [2] it was > 20 µM.

As for `Cc1nc(NC(C)c2ccc(-c3ccccc3CN(C)C)s2)c2cc(N3CCC3)ncc2n1` (stereo not shown) [Example 71, 6-(azetidin-1-yl)-N-[1-(5-{2-[(dimethylamino)methyl]phenyl}thiophen-2-yl)ethyl]-2-methylpyrido[3,4-d]pyrimidin-4-amine], the concentration for half-maximal inhibition (IC50) is 0.0511 µM in experiment [1] and > 20 µM in experiment [2].

In the case of `Cc1nc(NC(C)c2ccc(-c3ccccc3CN(C)C)s2)c2cc(OCCCN(C)C)ncc2n1` (stereo not shown) [Example 72, N-[1-(5-{2-[(dimethylamino)methyl]phenyl}thiophen-2-yl)ethyl]-6-[3-(dimethylamino)propoxy]-2-methylpyrido[3,4-d]pyrimidin-4-amine], the IC50 was 0.0342 µM in experiment [1] and > 20 µM in experiment [2].

With `Cc1nc(NC(C)c2ccc(-c3ccccc3CN(C)C)s2)c2cc(OCC3CC3)ncc2n1` (stereo not shown) [Example 73, 6-(cyclopropylmethoxy)-N-[1-(5-{2-[(dimethylamino)methyl]phenyl}thiophen-2-yl)ethyl]-2-methylpyrido[3,4-d]pyrimidin-4-amine], the IC50 in experiment [1] is 0.095 µM; in experiment [2], > 20 µM.

As for `Cc1nc(NC(C)c2ccc(-c3ccccc3CN(C)C)s2)c2cc(OCCO)ncc2n1` (stereo not shown) [Example 74, 2-[(4-{[1-(5-{2-[(dimethylamino)methyl]phenyl}thiophen-2-yl)ethyl]amino}-2-methylpyrido[3,4-d]pyrimidin-6-yl)oxy]ethanol], the figures for the half-inhibitory concentration (IC50) in experiment [1] and in experiment [2] were 0.0552 µM and > 20 µM, respectively.

On to `Cc1nc(N[C@H](C)c2cccc(Br)c2)c2cc(OCC3CC3)ncc2n1` [Example 75, N-[(1R)-1-(3-bromophenyl)ethyl]-6-(cyclopropylmethoxy)-2-methylpyrido[3,4-d]pyrimidin-4-amine], for which the concentration for half-maximal inhibition (IC50) was 4.18 µM in experiment [1] and > 20 µM in experiment [2].

On to `Cc1nc(NC(C)c2ccc(-c3ccccc3CN(C)C)s2)c2cc(OCCCO)ncc2n1` (stereo not shown) [Example 76, 3-[(4-{[1-(5-{2-[(dimethylamino)methyl]phenyl}thiophen-2-yl)ethyl]amino}-2-methylpyrido[3,4-d]pyrimidin-6-yl)oxy]propan-1-ol], for which the IC50 in experiment [1] is 0.0452 µM; in experiment [2] it was > 20 µM.

Regarding `Cc1nc(NC(C)c2ccc(-c3ccccc3CN(C)C)s2)c2cc(OC3CCS(=N)(=O)CC3)ncc2n1` (stereo not shown) [Example 77, N-[1-(5-{2-[(dimethylamino)methyl]phenyl}-2-thienyl)ethyl]-6-[(1-imino-1-oxidohexahydro-1lambda4-thiopyran-4-yl)oxy]-2-methylpyrido[3,4-d]pyrimidin-4-amine], the IC50 in experiment [1] is 0.0498 µM; in experiment [2] it was > 20 µM.

In the case of `Cc1nc(N[C@H](C)c2cccc(Br)c2)c2cc(OCCN(C)C)ncc2n1` [Example 78, N-[(1R)-1-(3-bromophenyl)ethyl]-6-[2-(dimethylamino)ethoxy]-2-methylpyrido[3,4-d]pyrimidin-4-amine], the IC50 was 1.28 µM in experiment [1] and > 20 µM in experiment [2].

For `Cc1nc(N[C@H](C)c2cccc(Br)c2)c2cc(NCCS(C)(=O)=O)ncc2n1` [Example 83], the IC50 in experiment [1] was 0.575 µM; in experiment [2], > 20 µM.

Take `Cc1nc(N[C@H](C)c2cccc(Br)c2)c2cc(NCCn3ccnc3)ncc2n1` [Example 84, N4-[(1R)-1-(3-bromophenyl)ethyl]-N6-[2-(1H-imidazol-1-yl)ethyl]-2-methylpyrido[3,4-d]pyrimidine-4,6-diamine]: the half-maximal inhibitory concentration (IC50) was 0.513 µM in experiment [1] and > 20 µM in experiment [2].

As for `Cc1nc(NC(C)c2ccc(-c3ccccc3CN(C)C)s2)c2cc(NCC3CCNC(=O)C3)ncc2n1` (stereo not shown) [Example 86, 4-{[(4-{[1-(5-{2-[(dimethylamino)methyl]phenyl}thiophen-2-yl)ethyl]amino}-2-methylpyrido[3,4-d]pyrimidin-6-yl)amino]methyl}piperidin-2-one], the figures for the half-inhibitory concentration (IC50) in experiment [1] and in experiment [2] were 0.119 µM and > 20 µM, respectively.

As to `Cc1nc(NC(C)c2ccc(-c3ccccc3CN(C)C)s2)c2cc(N3CC(NC(=O)CCCn4c(-c5ccccn5)nc(C)c4C)C3)ncc2n1` (stereo not shown) [Example 87, N-[1-(4-{[1-(5-{2-[(dimethylamino)methyl]phenyl}thiophen-2-yl)ethyl]amino}-2-methylpyrido[3,4-d]pyrimidin-6-yl)azetidin-3-yl]-4-[4,5-dimethyl-2-(pyridin-2-yl)-1H-imidazol-1-yl]butanamide], the figures for the half-maximal inhibitory concentration (IC50) in experiment [1] and in experiment [2] were 0.071 µM and > 20 µM, respectively.

`Cc1nc(NC(C)c2ccc(-c3ccccc3CN(C)C)s2)c2cc(N3CC(NC(=O)c4ccccc4)C3)ncc2n1` (stereo not shown) [Example 88, N-[1-(4-{[1-(5-{2-[(dimethylamino)methyl]phenyl}thiophen-2-yl)ethyl]amino}-2-methylpyrido[3,4-d]pyrimidin-6-yl)azetidin-3-yl]benzamide]: the IC50 in experiment [1] was 0.0595 µM; in experiment [2], > 20 µM.

Turning to `Cc1nc(NC(C)c2ccc(-c3ccccc3CN(C)C)s2)c2cc(N3CC(NC(=O)Cc4ccccc4)C3)ncc2n1` (stereo not shown) [Example 89, N-[1-(4-{[1-(5-{2-[(dimethylamino)methyl]phenyl}thiophen-2-yl)ethyl]amino}-2-methylpyrido[3,4-d]pyrimidin-6-yl)azetidin-3-yl]-2-phenylacetamide], the IC50 in experiment [1] was 0.0444 µM; in experiment [2], > 20 µM.

With `Cc1nc(NC(C)c2ccc(-c3ccccc3CN(C)C)s2)c2cc(N3CC(NC(=O)C4CCCCC4)C3)ncc2n1` (stereo not shown) [Example 90, N-[1-(4-{[1-(5-{2-[(dimethylamino)methyl]phenyl}thiophen-2-yl)ethyl]amino}-2-methylpyrido[3,4-d]pyrimidin-6-yl)azetidin-3-yl]cyclohexanecarboxamide], the figures for the 50% inhibitory concentration (IC50) in experiment [1] and in experiment [2] were 0.063 µM and > 20 µM, respectively.

Regarding `Cc1nc(NC(C)c2ccc(-c3ccccc3CN(C)C)s2)c2cc(N3CC(NC(=O)CC4CC4)C3)ncc2n1` (stereo not shown) [Example 91, 2-cyclopropyl-N-[1-(4-{[1-(5-{2-[(dimethylamino)methyl]phenyl}thiophen-2-yl)ethyl]amino}-2-methylpyrido[3,4-d]pyrimidin-6-yl)azetidin-3-yl]acetamide], the figures for the half-inhibitory concentration (IC50) in experiment [1] and in experiment [2] were 0.0551 µM and > 20 µM, respectively.
